This passage reports solubility results from patent publication US20150148306A1, “COMPOSITIONS AND METHODS FOR THE TREATMENT OF INFLAMMATION” (priority 2012, published 2015).

One may read the solubility as how much of the substance goes into solution per volume.

The series is described as follows: physchem. The class given is physicochemical. The following applies: water, thermodynamic from solid. The procedure: Measurement of the water solubility of the test compounds is accomplished by using methods well known to those skilled in the art. Specifically, to a weighed amount of the test compound of the example compound Formula I (1-1) distilled water was added in small proportions until a clear solution was obtained. The total volume of the solution is measured. The water solubility is calculated by dividing the weight of the salt, in milligrams (mg), by the volume of the solution, in mL. […] The compound of Formula I (1-1) is therefore, at least 372 times more soluble in water than EPA itself. This is a clear indication of an unexpectedly high degree of bioavailability of the compositions of the invention. Highly water soluble medicinal preparations, when administered orally, result in efficient absorption from the gastrointestinal tract in to systemic circulation. Furthermore, water soluble preparations are especially suitable for parenteral administration.

For `CC/C=C\C/C=C\C/C=C\C/C=C\C/C=C\CCCC(=O)O` [EPA, Eicosapentaenoic Acid], the solubility was less than 200 µg/mL.
